Test results taken from PMC5513037, “Examining the influence of specificity ligands and ATP-competitive ligands on the overall effectiveness of bivalent kinase inhibitors” (Proteome Science, 2017).

Legend:
Experiment in all cases: KAM-matrix competition in K562 lysate;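 as to 0.001 uM KAM: median log10 fold change of treatment over DMSO control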;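 as to 0.01 uM KAM: median log10 fold change of treatment over DMSO control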;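 as to 0.1 uM KAM: median log10 fold change of treatment over DMSO control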;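 as to 1 uM KAM: median log10 fold change of treatment over DMSO control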;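 as to 10 uM KAM: median log10 fold change of treatment over DMSO control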
Format in all cases: binding
[1] = biological target: T1, MARK4 (Homo sapiens, UniProt Q96L34)
T1 construct: K562 cell pellets were thawed on ice and resuspended in cold Lysis buffer; endogenous in cells; host or cells: K562
T1 sequence (Q96L34 1-752): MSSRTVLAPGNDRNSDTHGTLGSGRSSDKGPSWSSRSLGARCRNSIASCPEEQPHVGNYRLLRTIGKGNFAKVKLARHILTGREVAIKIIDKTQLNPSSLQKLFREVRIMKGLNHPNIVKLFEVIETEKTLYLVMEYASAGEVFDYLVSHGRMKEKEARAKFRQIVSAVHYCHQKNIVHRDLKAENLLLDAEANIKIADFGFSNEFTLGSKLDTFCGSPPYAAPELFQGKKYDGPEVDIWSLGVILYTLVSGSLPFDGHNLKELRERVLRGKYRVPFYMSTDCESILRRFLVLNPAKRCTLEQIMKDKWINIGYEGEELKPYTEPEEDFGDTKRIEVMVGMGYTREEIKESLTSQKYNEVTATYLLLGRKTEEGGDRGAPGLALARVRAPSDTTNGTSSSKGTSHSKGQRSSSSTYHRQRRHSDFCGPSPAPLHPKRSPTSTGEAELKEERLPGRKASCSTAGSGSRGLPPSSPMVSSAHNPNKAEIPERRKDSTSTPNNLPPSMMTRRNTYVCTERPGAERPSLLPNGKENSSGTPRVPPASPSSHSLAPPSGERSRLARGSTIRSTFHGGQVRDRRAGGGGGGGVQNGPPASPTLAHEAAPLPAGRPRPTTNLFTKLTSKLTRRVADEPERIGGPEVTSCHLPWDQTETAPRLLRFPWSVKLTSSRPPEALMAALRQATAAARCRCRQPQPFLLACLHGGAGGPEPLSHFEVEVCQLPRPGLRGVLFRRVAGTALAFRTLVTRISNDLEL
Experimental: (§1) Supplement 12953_2017_125_MOESM1_ESM.zip/MS_Supp Info.xlsx, sheet "KAM" | column: 10 uM KAM; 1 uM KAM; 0.1 uM KAM; 0.01 uM KAM; 0.001 uM KAM; RB50

[2] = biological target: T2, CAMK1 (Homo sapiens, UniProt Q14012);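 as to 0.001 uM KAM: median log10 fold change of treatment over DMSO control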;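 as to 0.01 uM KAM: median log10 fold change of treatment over DMSO control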;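 as to 0.1 uM KAM: median log10 fold change of treatment over DMSO control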;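 as to 1 uM KAM: median log10 fold change of treatment over DMSO control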;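 as to 10 uM KAM: median log10 fold change of treatment over DMSO control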
T2 construct: endogenous in cells; host or cells: K562
Experimental: as §1

[3] = biological target: T3, INSR (Homo sapiens, UniProt P06213);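 as to 0.001 uM KAM: median log10 fold change of treatment over DMSO control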;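 as to 0.01 uM KAM: median log10 fold change of treatment over DMSO control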;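 as to 0.1 uM KAM: median log10 fold change of treatment over DMSO control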;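 as to 1 uM KAM: median log10 fold change of treatment over DMSO control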;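 as to 10 uM KAM: median log10 fold change of treatment over DMSO control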
T3 construct: endogenous in cells; host or cells: K562
Experimental: as §1

[4] = biological target: T4, TP53RK (Homo sapiens, UniProt Q96S44);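 as to 0.001 uM KAM: median log10 fold change of treatment over DMSO control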;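 as to 0.01 uM KAM: median log10 fold change of treatment over DMSO control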;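 as to 0.1 uM KAM: median log10 fold change of treatment over DMSO control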;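 as to 1 uM KAM: median log10 fold change of treatment over DMSO control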;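 as to 10 uM KAM: median log10 fold change of treatment over DMSO control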
T4 construct: endogenous in cells; host or cells: K562
T4 sequence (Q96S44 1-253): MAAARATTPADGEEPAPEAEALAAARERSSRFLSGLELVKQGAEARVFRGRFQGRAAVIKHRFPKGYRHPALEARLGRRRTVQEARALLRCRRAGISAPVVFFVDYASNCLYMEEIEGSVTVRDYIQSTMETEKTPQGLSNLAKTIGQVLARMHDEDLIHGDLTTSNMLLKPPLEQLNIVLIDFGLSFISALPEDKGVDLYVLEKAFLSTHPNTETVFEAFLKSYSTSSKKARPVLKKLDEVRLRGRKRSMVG
Experimental: as §1

[5] = biological target: T5, CDK12 (Homo sapiens, UniProt Q9NYV4)
T5 construct: endogenous in cells; host or cells: K562
Experimental: as §1

[6] = biological target: T6, CHEK1 (Homo sapiens, UniProt O14757)
T6 construct: endogenous in cells; host or cells: K562
T6 sequence (O14757 1-476): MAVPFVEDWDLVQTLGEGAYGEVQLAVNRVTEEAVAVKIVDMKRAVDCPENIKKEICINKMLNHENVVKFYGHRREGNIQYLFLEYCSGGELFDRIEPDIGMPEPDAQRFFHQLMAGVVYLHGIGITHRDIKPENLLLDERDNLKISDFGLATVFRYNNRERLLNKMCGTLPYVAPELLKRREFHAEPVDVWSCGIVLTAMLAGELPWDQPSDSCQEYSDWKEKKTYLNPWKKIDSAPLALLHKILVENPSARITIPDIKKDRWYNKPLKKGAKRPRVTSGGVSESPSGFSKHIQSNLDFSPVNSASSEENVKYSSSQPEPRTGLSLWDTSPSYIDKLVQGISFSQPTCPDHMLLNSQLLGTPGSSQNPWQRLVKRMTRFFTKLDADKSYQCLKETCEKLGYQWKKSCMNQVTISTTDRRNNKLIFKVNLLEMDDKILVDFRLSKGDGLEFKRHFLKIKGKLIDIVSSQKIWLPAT
Experimental: as §1

[7] = read-out: RB50 (the source's name)
[8] = KAM 0.001-10 uM, read-out: RB50 (the source's name)

T5 sequence (Q9NYV4 whole entry): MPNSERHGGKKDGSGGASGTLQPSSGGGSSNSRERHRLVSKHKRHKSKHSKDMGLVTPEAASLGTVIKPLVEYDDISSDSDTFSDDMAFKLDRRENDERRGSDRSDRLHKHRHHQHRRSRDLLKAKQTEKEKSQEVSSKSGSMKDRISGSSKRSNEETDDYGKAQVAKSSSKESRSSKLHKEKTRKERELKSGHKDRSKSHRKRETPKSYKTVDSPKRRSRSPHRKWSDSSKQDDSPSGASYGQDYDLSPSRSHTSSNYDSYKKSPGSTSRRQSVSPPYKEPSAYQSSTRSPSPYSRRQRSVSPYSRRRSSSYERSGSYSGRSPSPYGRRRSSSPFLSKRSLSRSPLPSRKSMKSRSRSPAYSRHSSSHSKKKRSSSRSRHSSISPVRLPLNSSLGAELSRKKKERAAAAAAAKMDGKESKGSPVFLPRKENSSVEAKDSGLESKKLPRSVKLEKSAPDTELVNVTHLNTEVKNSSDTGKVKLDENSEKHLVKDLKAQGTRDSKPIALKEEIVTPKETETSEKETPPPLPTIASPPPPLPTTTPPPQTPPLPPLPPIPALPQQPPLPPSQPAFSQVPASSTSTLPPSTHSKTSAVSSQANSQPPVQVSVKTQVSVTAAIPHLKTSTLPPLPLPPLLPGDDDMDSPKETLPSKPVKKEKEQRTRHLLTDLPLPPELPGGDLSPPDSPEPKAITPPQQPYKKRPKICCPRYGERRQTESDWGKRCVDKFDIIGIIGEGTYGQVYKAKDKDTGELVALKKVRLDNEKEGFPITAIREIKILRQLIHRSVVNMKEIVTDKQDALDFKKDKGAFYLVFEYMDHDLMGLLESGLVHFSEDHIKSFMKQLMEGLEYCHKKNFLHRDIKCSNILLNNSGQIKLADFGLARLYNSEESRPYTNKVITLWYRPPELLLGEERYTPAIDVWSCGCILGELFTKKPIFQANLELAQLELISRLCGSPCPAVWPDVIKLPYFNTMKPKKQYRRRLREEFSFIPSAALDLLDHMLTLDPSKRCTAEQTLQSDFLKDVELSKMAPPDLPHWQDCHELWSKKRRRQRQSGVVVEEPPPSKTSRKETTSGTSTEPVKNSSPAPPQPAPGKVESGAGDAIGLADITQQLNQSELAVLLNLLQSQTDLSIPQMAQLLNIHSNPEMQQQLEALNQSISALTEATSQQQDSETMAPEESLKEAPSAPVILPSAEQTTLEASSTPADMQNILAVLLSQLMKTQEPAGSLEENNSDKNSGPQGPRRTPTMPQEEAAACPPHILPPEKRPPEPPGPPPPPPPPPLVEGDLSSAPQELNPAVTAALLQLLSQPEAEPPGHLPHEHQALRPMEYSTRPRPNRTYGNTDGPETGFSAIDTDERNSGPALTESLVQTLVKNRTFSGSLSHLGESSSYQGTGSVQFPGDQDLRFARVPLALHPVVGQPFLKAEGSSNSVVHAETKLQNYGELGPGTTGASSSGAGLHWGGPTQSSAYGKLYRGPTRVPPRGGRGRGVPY
T5 sequence (O75909 whole entry partner): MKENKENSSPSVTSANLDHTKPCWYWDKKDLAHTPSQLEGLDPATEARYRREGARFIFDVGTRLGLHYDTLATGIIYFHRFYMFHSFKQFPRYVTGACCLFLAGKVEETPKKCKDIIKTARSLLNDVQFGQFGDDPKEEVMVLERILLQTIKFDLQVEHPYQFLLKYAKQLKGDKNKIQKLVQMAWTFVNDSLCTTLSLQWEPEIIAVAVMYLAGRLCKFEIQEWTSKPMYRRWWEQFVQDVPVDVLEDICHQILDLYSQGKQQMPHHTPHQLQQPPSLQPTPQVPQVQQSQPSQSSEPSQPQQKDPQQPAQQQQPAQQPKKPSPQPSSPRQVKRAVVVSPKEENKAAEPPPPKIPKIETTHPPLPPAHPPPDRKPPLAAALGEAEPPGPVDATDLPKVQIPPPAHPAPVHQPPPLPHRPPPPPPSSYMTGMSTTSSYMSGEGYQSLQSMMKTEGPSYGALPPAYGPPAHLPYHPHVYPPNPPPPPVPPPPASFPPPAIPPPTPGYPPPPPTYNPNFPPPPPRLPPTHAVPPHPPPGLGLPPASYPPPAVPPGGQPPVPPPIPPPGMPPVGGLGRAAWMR
T2 sequence (Q14012 whole entry): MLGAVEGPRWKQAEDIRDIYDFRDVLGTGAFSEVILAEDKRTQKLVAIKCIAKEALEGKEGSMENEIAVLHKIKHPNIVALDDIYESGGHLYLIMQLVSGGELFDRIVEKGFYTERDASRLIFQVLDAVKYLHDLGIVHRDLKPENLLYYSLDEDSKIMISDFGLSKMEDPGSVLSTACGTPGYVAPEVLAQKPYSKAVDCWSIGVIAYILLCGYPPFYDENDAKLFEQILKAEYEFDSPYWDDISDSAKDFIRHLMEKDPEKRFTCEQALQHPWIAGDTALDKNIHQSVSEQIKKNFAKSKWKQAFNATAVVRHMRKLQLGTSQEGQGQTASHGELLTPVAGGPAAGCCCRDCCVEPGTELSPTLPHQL
T3 sequence (P06213 28-1382): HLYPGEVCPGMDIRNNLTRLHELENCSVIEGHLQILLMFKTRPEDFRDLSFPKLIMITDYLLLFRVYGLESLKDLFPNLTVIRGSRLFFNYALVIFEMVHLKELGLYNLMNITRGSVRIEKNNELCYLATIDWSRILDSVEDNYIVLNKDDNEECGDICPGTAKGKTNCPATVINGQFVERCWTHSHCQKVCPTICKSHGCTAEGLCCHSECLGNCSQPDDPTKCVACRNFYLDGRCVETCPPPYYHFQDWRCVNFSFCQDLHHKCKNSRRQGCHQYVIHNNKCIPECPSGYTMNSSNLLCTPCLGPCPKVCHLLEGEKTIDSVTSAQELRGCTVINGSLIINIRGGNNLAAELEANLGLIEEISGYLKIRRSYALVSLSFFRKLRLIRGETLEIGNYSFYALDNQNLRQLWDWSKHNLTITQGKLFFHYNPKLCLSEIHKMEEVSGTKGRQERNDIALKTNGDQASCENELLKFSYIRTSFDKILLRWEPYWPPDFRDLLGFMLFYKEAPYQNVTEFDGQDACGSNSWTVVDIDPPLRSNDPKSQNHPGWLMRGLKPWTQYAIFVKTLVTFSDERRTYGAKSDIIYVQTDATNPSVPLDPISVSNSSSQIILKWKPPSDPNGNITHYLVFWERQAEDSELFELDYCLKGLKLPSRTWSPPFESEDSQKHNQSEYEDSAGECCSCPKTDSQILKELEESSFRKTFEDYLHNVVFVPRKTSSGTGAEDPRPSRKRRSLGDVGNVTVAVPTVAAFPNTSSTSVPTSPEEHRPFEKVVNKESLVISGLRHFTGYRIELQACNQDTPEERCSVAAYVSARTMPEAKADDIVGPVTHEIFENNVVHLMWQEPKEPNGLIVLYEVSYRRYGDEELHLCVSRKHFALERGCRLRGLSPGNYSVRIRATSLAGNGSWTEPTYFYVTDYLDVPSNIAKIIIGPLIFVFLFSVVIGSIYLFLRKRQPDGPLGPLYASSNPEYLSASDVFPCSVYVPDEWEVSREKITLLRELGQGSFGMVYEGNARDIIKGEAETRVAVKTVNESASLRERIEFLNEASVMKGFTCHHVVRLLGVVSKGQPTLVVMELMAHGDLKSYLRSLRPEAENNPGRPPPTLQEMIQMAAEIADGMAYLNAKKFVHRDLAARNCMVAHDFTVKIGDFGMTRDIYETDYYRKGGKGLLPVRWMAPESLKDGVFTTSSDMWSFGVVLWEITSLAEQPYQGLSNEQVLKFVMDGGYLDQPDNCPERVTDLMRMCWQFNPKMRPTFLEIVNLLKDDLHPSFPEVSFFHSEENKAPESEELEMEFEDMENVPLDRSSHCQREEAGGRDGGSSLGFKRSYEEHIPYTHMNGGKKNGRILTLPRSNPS

## N#CCc1ccc(Nc2nc(NCCCN)cc(Nc3cc(C4CC4)[nH]n3)n2)cc1 [KAM]
[1]; 0.001 uM KAM
  median Log10 fold change: -0.09809
[1]; 0.01 uM KAM
  median Log10 fold change: -0.06359
[1]; 0.1 uM KAM
  median Log10 fold change: -0.2055
[1]; 1 uM KAM
  median Log10 fold change: -0.3566
[1]; 10 uM KAM
  median Log10 fold change: -0.4457
[1]; [7]
  IC50: 0.604 µM
[2]; [8]
  IC50: 6.47 µM
[2]; relative to 0 uM KAM = 0
  0.001 uM KAM: -0.0406
  0.01 uM KAM: 0.01937
  0.1 uM KAM: -0.06624
  1 uM KAM: -0.1636
  10 uM KAM: -0.3114
[3]; [8]
  IC50: > 10 µM
[3]; relative to 0 uM KAM = 0
  0.001 uM KAM: -0.0389
  0.01 uM KAM: 0.002129
  0.1 uM KAM: -0.09696
  1 uM KAM: -0.2508
  10 uM KAM: -0.2556
[4]; [8]
  IC50: > 10 µM
[4]; relative to 0 uM KAM = 0
  0.001 uM KAM: 0.009964
  0.01 uM KAM: 0.004194
  0.1 uM KAM: 0.08221
  1 uM KAM: 0.04146
  10 uM KAM: -0.01189
[5]; 0.001 uM KAM
  median Log10 fold change: 0.006765
[5]; 0.01 uM KAM
  median Log10 fold change: 0.002685
[5]; 0.1 uM KAM
  median Log10 fold change: -0.1288
[5]; 1 uM KAM
  median Log10 fold change: -0.2742
[5]; 10 uM KAM
  median Log10 fold change: -0.4096
[5]; [7]
  IC50: 1.57 µM
[6]; 0.001 uM KAM
  median Log10 fold change: -0.01146
[6]; 0.01 uM KAM
  median Log10 fold change: -0.009061
[6]; 0.1 uM KAM
  median Log10 fold change: -0.1025
[6]; 1 uM KAM
  median Log10 fold change: -0.2953
[6]; 10 uM KAM
  median Log10 fold change: -0.4632
[6]; [7]
  IC50: 1.29 µM
